# Patent US11970448B2, “Monomers capable of dimerizing in an aqueous solution, and methods of using same” (CORNELL UNIVERSITY, priority 2011, dated 2024)
# Where a name gives a salt, the structure may show the parent alone. Read-outs that look alike come from different tables or passages of the source.
# Biological target: T1, recominbant human tryptase, beta, from lung (Homo sapiens, UniProt P20231)
# T1 construct: purchased Promega or Enzo Life Sciences G5631 or BML-SE418
# Experiment: Inhibition of tryptase activity by monomers and multimers (Boc-Gln-Ala-Arg-AMC fluorescence)
# Format: biochemical
# Conditions: monomers against tryptase
# Description: Stock solutions of recominbant human tryptase, beta, from lung (Promega: catalog number G5631, or Enzo Life Sciences: catalog number BML-SE418) were made at 30 μM, in solution with 5 μM heparin sulfate and 1 M NaCl. Monomer tryptase inhibitor stock solutions were made at 50 mM in DMSO. Test substance plates were made at 1.2× the final concentration in assay buffer (50 mM HEPES, 150 mM NaCl, 100 μM EDTA, pH 7.4, 0.02% Tween-20). A final concentration of 1 nM tryptase was used. When required, test substances were diluted in water immediately before use in 10-fold serial dilutions. After the indicated incubation time, the test subtance-tryptase solution at 1.2× concentration, was diluted into assay buffer containing a final concentration of 200 μM N-tert-butoxycarbonyl-Gln-Ala-Arg-AMC HBr [AMC=7-amino-4-methylcoumarin] (Boc-Gln-Ala-Arg-AMC; Enzo Life Sciences: catalog number BML-P237) to a final volume of 50 μl in black opaque round bottom 96 well plates (Corning, catalog number 3792). The release of fluorescent AMC was immediately measured every 30 seconds over 15-30 minutes at an excitation wavelength of 367 nm, monitoring emission at 468 nm on a Spectramax M5 (Molecular Devices) microplate reader. The Softmax Pro (Molecular Devices) and Graphpad prism software were used to determine Vmax, and concentration-response curve IC50s, respectively.
# [1] = Table 5, read-out: Monomer IC50 range
# [2] = read-out: IC50 range group of additional monomers (boronic acid, benzooxaborole, ligands)
# T1 sequence (P20231 31-275): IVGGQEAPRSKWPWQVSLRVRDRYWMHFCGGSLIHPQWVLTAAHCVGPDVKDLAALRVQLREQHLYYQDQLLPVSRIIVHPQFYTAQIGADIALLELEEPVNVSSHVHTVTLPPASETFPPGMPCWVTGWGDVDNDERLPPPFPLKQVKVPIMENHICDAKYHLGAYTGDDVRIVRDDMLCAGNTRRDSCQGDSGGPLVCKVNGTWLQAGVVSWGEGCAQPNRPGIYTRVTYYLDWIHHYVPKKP
SMILES,IC50 [1],IC50 [2],"IC50 (entry marked (1:10), read-out: IC50 range group of additional monomers marked (1:10))"
"NCc1cccc(C2CCN(C(=O)/C=C/c3ccc(O)c(O)c3)CC2)c1 [T24, (E)-1-(4-(3-(aminomethyl)phenyl)piperidin-1-yl)-3-(3,4-dihydroxyphenyl)prop-2-en-1-one hydrochloride]",1 to 10 µM,1 to 10 µM,
"NCc1cccc(C2CCN(C(=O)CCc3ccc(O)c(O)c3)CC2)c1 [T24Dihydro, 1-(4-(3-(aminomethyl)phenyl)piperidin-1-yl)-3-(3,4-dihydroxyphenyl)propan-1-one (TFA salt)]",,1 to 10 µM,
"COc1cc(/C=C/C(=O)N2CCC(c3cccc(CN)c3)CC2)ccc1O [T24MON, (E)-1-(4-(3-(aminomethyl)phenyl)piperidin-1-yl)-3-(4-hydroxy-3-methoxyphenyl)prop-2-en-1-one]",1 to 10 µM,,
"NCc1cccc(C2CCN(C(=O)/C=C\c3ccc(O)c(O)c3)CC2)c1 [T24cis, (Z)-1-(4-(3-(aminomethyl)phenyl)piperidin-1-yl)-3-(3,4-dihydroxyphenyl)prop-2-en-1-one]",1 to 10 µM,1 to 10 µM,
"NCc1cccc(C2CCN(C(=O)c3cccc(N4C[C@@H](O)[C@@H](O)C4)c3)CC2)c1 [T25B, (4-(3-(aminomethyl)phenyl)piperidin-1-yl)(3-((3S,4R)-3,4-dihydroxypyrrolidin-1-yl)phenyl)methanone]",0.0001 to 1 µM,,0.0001 to 1 µM
"NCc1cccc(C2CCN(C(=O)c3cccc(C(=O)N4C[C@@H](O)[C@H](O)C4)c3)CC2)c1 [T26diol cis, (4-(3-(aminomethyl)phenyl)piperidin-1-yl)(3-((3R,4R)-3,4-dihydroxypyrrolidine-1-carbonyl)phenyl)methanone]",1 to 10 µM,1 to 10 µM,
"NCc1cccc(C2CCN(C(=O)c3cccc(C(=O)N4C[C@@H](O)[C@@H](O)C4)c3)CC2)c1 [T26diol trans, (4-(3-(aminomethyl)phenyl)piperidin-1-yl)(3-((3S,4R)-3,4-dihydroxypyrrolidine-1-carbonyl)phenyl)methanone]",1 to 10 µM,1 to 10 µM,
"NCc1ccc(F)c(C2CCN(C(=O)c3cccc4cc(O)c(O)cc34)CC2)c1 [T27F, (4-(5-(aminomethyl)-2-fluorophenyl)piperidin-1-yl)(6,7-dihydroxynaphthalen-1-yl)methanone]",1 to 10 µM,1 to 10 µM,
"NCc1cccc(C2CCN(C(=O)c3cccc(O)c3O)CC2)c1 [T28, (4-(3-(aminomethyl)phenyl)piperidin-1-yl)(2,3-dihydroxyphenyl)methanone]",1 to 10 µM,1 to 10 µM,
"NCc1cccc(C2CCN(C(=O)c3cccc(OCC(=O)N4C[C@@H](O)[C@@H](O)C4)c3)CC2)c1 [T29, 2-(3-(4-(3-(aminomethyl)phenyl)piperidine-1-carbonyl)phenoxy)-1-((3S,4R)-3,4-dihydroxypyrrolidin-1-yl)ethanone]",1 to 10 µM,,
"NCc1cccc(C2CCN(C(=O)c3ccc(OCC(=O)N4C[C@@H](O)[C@@H](O)C4)cc3)CC2)c1 [T30, 2-(4-(4-(3-(aminomethyl)phenyl)piperidine-1-carbonyl)phenoxy)-1-((3S,4R)-3,4-dihydroxypyrrolidin-1-yl)ethanone]",1 to 10 µM,1 to 10 µM,
"NCc1cccc(C2CCN(C(=O)c3cc4cc(O)ccc4[nH]3)CC2)c1 [T31A, (4-(3-(aminomethyl)phenyl)piperidin-1-yl)(5-hydroxy-1H-indol-2-yl)methanone]",0.0001 to 1 µM,,
"NCc1cccc(C2CCN(C(=O)c3cc4c(B(O)O)cccc4[nH]3)CC2)c1 [T32, 2-(4-(3-(aminomethyl)phenyl)piperidine-1-carbonyl)-1H-indol-4-ylboronic acid]",1 to 10 µM,1 to 10 µM,
"NCc1cccc(C2CCN(C(=O)/C=C/c3ccc(B(O)O)cc3)CC2)c1 [T33, (E)-4-(3-(4-(3-(aminomethyl)phenyl)piperidin-1-yl)-3-oxoprop-1-enyl)phenylboronic acid]",1 to 10 µM,1 to 10 µM,
"N=C(N)c1ccc2c(c1)C1(CCN(C(=O)/C=C/c3ccc(B(O)O)cc3)CC1)CO2 [T33SPAM, (E)-4-(3-(5-carbamimidoyl-2H-spiro[benzofuran-3,4′-piperidine]-1′-yl)-3-oxoprop-1-enyl)phenylboronic acid]",,1 to 10 µM,
"NCc1cccc(C2CCN(C(=O)/C=C/c3cccc(B(O)O)c3)CC2)c1 [T34, (E)-3-(3-(4-(3-(aminomethyl)phenyl)piperidin-1-yl)-3-oxoprop-1-enyl)phenylboronic acid]",1 to 10 µM,1 to 10 µM,
"NCc1cccc(C2CCN(C(=O)c3cccc(-c4cccc(B(O)O)c4)c3)CC2)c1 [T35, 3′-(4-(3-(aminomethyl)phenyl)piperidine-1-carbonyl)biphenyl-3-ylboronic acid]",0.0001 to 1 µM,0.0001 to 1 µM,

SMILES,IC50 [1],IC50 [2],"IC50 (entry marked (1:10), read-out: IC50 range group of additional monomers marked (1:10))"
"NCc1ccc(F)c(C2CCN(C(=O)c3cccc(-c4cccc(B(O)O)c4)c3)CC2)c1 [T35F, 3′-(4-(5-(aminomethyl)-2-fluorophenyl)piperidine-1-carbonyl)biphenyl-3-ylboronic acid]",0.0001 to 1 µM,0.0001 to 1 µM,
"N=C(N)c1ccc2c(c1)C1(CCN(C(=O)c3cccc(-c4cccc(B(O)O)c4)c3)CC1)CO2 [T35SPAM, 3′-(5-carbamimidoyl-2H-spiro[benzofuran-3,4′-piperidine]-1′-ylcarbonyl)biphenyl-3-ylboronic acid]",,0.0001 to 1 µM,
"NCc1ccc2c(c1)C1(CCN(C(=O)c3cccc(-c4cccc(B(O)O)c4)c3)CC1)CO2 [T35SPIRO, 3′-(5-(aminomethyl)-2H-spiro[benzofuran-3,4′-piperidine]-1′-ylcarbonyl)biphenyl-3-ylboronic acid]",1 to 10 µM,1 to 10 µM,
"NCc1cccc(C2CCN(C(=O)c3ccc(-c4ccc5c(c4)COB5O)cc3)CC2)c1 [T36, (4-(3-(aminomethyl)phenyl)piperidin-1-yl)(4-(1-hydroxy-1,3-dihydrobenzo[c][1,2]oxaborol-5-yl)phenyl)methanone]",1 to 10 µM,1 to 10 µM,
"NCc1cccc(C2CCN(C(=O)c3cccc(-c4ccc5c(c4)COB5O)c3)CC2)c1 [T36M, (4-(3-(aminomethyl)phenyl)piperidin-1-yl)(3-(1-hydroxy-1,3-dihydrobenzo[c][1,2]oxaborol-5-yl)phenyl)methanone]",0.0001 to 1 µM,0.0001 to 1 µM,
"NCc1cccc(C2CCN(C(=O)c3cccc4sc(B(O)O)cc34)CC2)c1 [T37, 4-(4-(3-(aminomethyl)phenyl)piperidine-1-carbonyl)benzo[b]thiophen-2-ylboronic acid]",1 to 10 µM,1 to 10 µM,
"NCc1cccc(C2CCN(C(=O)c3cccc4sc(Br)cc34)CC2)c1 [T37A, (4-(3-(aminomethyl)phenyl)piperidin-1-yl)(2-bromobenzo[b]thiophen-4-yl)methanone]",1 to 10 µM,,
"NCc1cccc(C2CCN(C(=O)/C=C/c3ccc(O)c(CO)c3)CC2)c1 [T40, (E)-1-(4-(3-(aminomethyl)phenyl)piperidin-1-yl)-3-(4-hydroxy-3-(hydroxymethyl)phenyl)prop-2-en-1-one]",1 to 10 µM,1 to 10 µM,
"NCc1cccc(C2CCN(C(=O)/C=C/c3ccc(CO)c(O)c3)CC2)c1 [T41, (E)-1-(4-(3-(aminomethyl)phenyl)piperidin-1-yl)-3-(3-hydroxy-4-(hydroxymethyl)phenyl)prop-2-en-1-one]",0.0001 to 1 µM,0.0001 to 1 µM,
"NCc1cccc(C2CCN(C(=O)/C=C/c3ccc(C4CC4)c(O)c3)CC2)c1 [T41CYCLO, (E)-1-(4-(3-(aminomethyl)phenyl)piperidin-1-yl)-3-(4-cyclopropyl-3-hydroxyphenyl)prop-2-en-1-one]",0.0001 to 1 µM,,
"CC(C)(O)c1ccc(/C=C/C(=O)N2CCC(c3cccc(CN)c3)CC2)cc1O [T41GEM, (E)-1-(4-(3-(aminomethyl)phenyl)piperidin-1-yl)-3-(3-hydroxy-4-(2-hydroxypropan-2-yl)phenyl)prop-2-en-1-one]",0.0001 to 1 µM,0.0001 to 1 µM,
NCc1cccc(C2CCN(C(=O)/C=C/c3cccc(O)c3CO)CC2)c1 [T42],1 to 10 µM,1 to 10 µM,
"NCc1cccc(C2CCN(C(=O)/C=C/c3cc(O)c(O)c(O)c3)CC2)c1 [T43, (E)-1-(4-(3-(aminomethyl)phenyl)piperidin-1-yl)-3-(3,4,5-trihydroxyphenyl)prop-2-en-1-one]",0.0001 to 1 µM,0.0001 to 1 µM,
"NCc1cccc(C2CCN(C(=O)c3cccc4cc(CO)c(O)cc34)CC2)c1 [T44, (4-(3-(aminomethyl)phenyl)piperidin-1-yl)(7-hydroxy-6-(hydroxymethyl)naphthalen-1-yl)methanone]",1 to 10 µM,1 to 10 µM,
NCc1cccc(C2CCN(C(=O)c3ccc(B(O)O)c4cccnc34)CC2)c1 [T51],,10 to 65 µM,
"NCc1cccc(C2CCN(C(=O)c3cccc(OCCC(=O)N4C[C@@H](O)[C@@H](O)C4)c3)CC2)c1 [T53, 3-(3-(4-(3-(aminomethyl)phenyl)piperidine-1-carbonyl)phenoxy)-1-((3S,4R)-3,4-dihydroxypyrrolidin-1-yl)propan-1-one]",0.0001 to 1 µM,0.0001 to 1 µM,
"NCc1cccc(C2CCN(C(=O)c3cccc(O)c3)CC2)c1 [T53B, (4-(3-(aminomethyl)phenyl)piperidin-1-yl)(3-hydroxyphenyl)methanone]",1 to 10 µM,,
